Results: patent US20080132539A1, “Hydroxamic Acid Derivative And Age Generation Inhibitor Containing The Derivative” (priority 2003, published 2008)

Test system: Maillard reaction (lysozyme / fructose, dimer formation)
Assay: Maillard reaction-inhibiting effects (lysozyme dimer formation with fructose, SDS-PAGE densitometry)
Type: biochemical
Conditions: 10 mg/mL lysozyme, 200 mM fructose, pH 7.4, 37° C., 4 days, dimer formation inhibition rate
Description: This Example examined Maillard reaction-inhibiting effects using, as test compounds, the compounds produced in the above-described Examples and the commercially available substances arginine hydroxamate (Compound No. 111), tyrosine hydroxamate (Compound No. 112), and tryptophan hydroxamate (Compound No. 113). More specifically, 10 mg/mL lysozyme, 200 mM fructose, and each of the above-described test compounds dissolved in a 0.4 mM sodium phosphate buffer (pH 7.4) so as to provide a concentrations of 0.1, 0.3, 1, or 3 mM were incubated at 37° C. for 4 days. After the incubation, the samples were subjected to SDS-PAGE, stained with Coomassie Brilliant Blue R-250, and quantitated for the formed dimmers using a densitometer. The Maillard reaction-inhibiting activity was defined as the dimmer formation inhibition rate of a test compound calculated on the basis that the amount of dimmer is 100% in the absence of the test compound, using, as blank, the amount of dimer in the absence of fructose and the test compound.

[1] = test compound concentration 0.1 mM
[2] = test compound concentration 0.3 mM
[3] = test compound concentration 1 mM
[4] = test compound concentration 3 mM

SMILES	Maillard reaction-inhibiting activity (%) [1] [%]	Maillard reaction-inhibiting activity (%) [2] [%]	Maillard reaction-inhibiting activity (%) [3] [%]	Maillard reaction-inhibiting activity (%) [4] [%]
CC(C)(C)c1ccc(Cn2cc(CC(N)C(=O)NO)c3ccccc32)cc1 (racemic) [Compound No. 106, (RS)-2-amino-3-[1-(4-t-butylbenzyl)-1H-indol-3-yl]-N-hydroxypropionamide]	94	95	97	95
NC(Cc1cn(Cc2ccc(F)c(F)c2)c2ccccc12)C(=O)NO (racemic) [Compound No. 108, (RS)-2-amino-3-[1-(3,4-difluorobenzyl)-1H-indol-3-yl]-N-hydroxypropionamide]	102	103	104	104
CC(C)(C)c1ccc(NC(=O)CC[C@H](N)C(=O)NO)cc1 [Compound No. 2, (S)-2-amino-4-(4-t-butylphenylaminocarbonyl)-N-hydroxybutyramide]	86	100	100	100
N[C@@H](CCC(=O)NC1CCCCC1)C(=O)NO [Compound No. 5, (S)-2-amino-4-(cyclohexylaminocarbonyl)-N-hydroxybutyramide]	−3	5	35	97
N[C@@H](CCC(=O)NCC(c1ccccc1)c1ccccc1)C(=O)NO [Compound No. 6, (S)-2-amino-4-(2,2-diphenylethylaminocarbonyl)-N-hydroxybutyramide]	49	97	103	100
N[C@@H](CCC(=O)NCc1ccccn1)C(=O)NO [Compound No. 7, (S)-2-amino-4-(pyridin-2-ylmethylaminocarbonyl)-N-hydroxybutyramide]	−3	−4	13	72
N[C@@H](CCCNC(=O)c1ccc([N+](=O)[O-])cc1)C(=O)NO [Compound No. 15, (S)-2-amino-5-(4-nitrobenzoylamino)pentanoic acid hydroxyamide]	−12	−2	43	98
N[C@@H](CCCNC(=O)Cc1ccc([N+](=O)[O-])cc1)C(=O)NO [Compound No. 16, (S)-2-amino-5-(4-nitrophenylacetylamino)pentanoic acid hydroxyamide]	−7	11	71	98
N[C@@H](CCCNC(=O)CC1CCCCC1)C(=O)NO [Compound No. 19, (S)-2-amino-5-(cyclohexylacetylamino)pentanoic acid hydroxyamide]	10	54	95	101
CCCN(CCC)CCC[C@H](N)C(=O)NO [Compound No. 25, (S)-2-amino-5-dipropylaminopentanoic acid hydroxyamide]	7	6	40	100
CCCCCN(CCCCC)CCC[C@H](N)C(=O)NO [Compound No. 26, (S)-2-amino-5-dipentylaminopentanoic acid hydroxyamide]	11	17	68	100
